# Where a SMILES comes first, the peptide text is derived from it. Bridges are numbered along the chain shown (N, C = ends). [ ]: non-standard residue; d: D form.
# How the values were obtained:
# CALM1 (calmodulin) [1] = biological target: T1, CALM1 (calmodulin) (Homo sapiens, UniProt P0DP23); test: Capture compound mass spectrometry (CCMS) proteome profiling in HeLa cell lysate; assay type: binding; parameters: endogenous in cells; host or cells: HeLa cell lysate; details: probe 5 μM, competitor 240 μM, enrichment >2-fold, triplicate
# Description: Capture experiments were carried out in PCR strips according to the general CCMS procedure.[48] 400 μg of HeLa cell lysate at 10 μg μL^–1 was pipetted for each set in triplicate. To the competition samples, 240 μM of BBP-competitor was added as a final concentration and incubated for 30 min at 4 °C. Assay and competition samples were then incubated with BBP-capture compounds or BBP-scaffold controls at a final concentration of 5 μM for 1 hour at 4 °C on a rotating axis and irradiated for 10 min at 310 nm in a caproBox™ (caprotec bioanalytics GmbH) to promote covalent cross-linking. Streptavidin-coated magnetic beads (Invitrogen) were added to the samples and further rotated for 1 hour at 4 °C. The beads were collected using a caproMag (caprotec bioanalytics GmbH) and washed 4 times with washing buffer (caprotec bionanalytics GmbH) followed by 3 times washing with 80% acetonitrile and lastly resuspended in MS-grade water. For tryptic digestion, the magnetic beads were incubated with trypsin in 50 mM ammonium bicarbonate for 16 hours at 37 °C. The supernatant was recovered, evaporated and stored at –20 °C until mass spectrometry analysis.
# Mass Spectrometry: Tryptic digests were analyzed by online nanoflow liquid chromatography tandem MS (LC-MSn) on an UltiMate 3000 RSLCnano System (Dionex, part of Thermo Fisher Scientific, Germany) coupled to a LTQ-Orbitrap Velos instrument (Thermo Fisher Scientific, Germany) through a Proxeon nanoelectrospray ion source (Proxeon, part of Thermo Fisher Scientific, Germany). For chromatographic separation samples were first loaded on a reversed phase (RP) precolumn (Acclaim PepMap100, 5 μm, 100 Å, 100 μm i.d. × 20 mm) and separated on a RP analytical column (Acclaim PepMap RSLC C18, 2 μm, 100 Å, 75 μm i.d. × 150 mm, Dionex, part of Thermo Fisher Scientific, Germany) performing a 96 min gradient (5–45 % acetonitrile, 0.1% formic acid). MS detection was performed in the data-dependent mode allowing to automatically switch between Orbitrap-MS and LTQ-MS/MS acquisition in a top 20 configuration at 60 K resolution for a full scan with subsequent collision induced dissociation (CID) fragmentation. Full scan MS spectra (from m/z 300–2000) were acquired in the Orbitrap analyzer after accumulation to a target value of 1 × 10^6 in the linear ion trap. The most intense ions (up to twenty, depending on signal intensity) with charge state ≥2 were sequentially isolated at a target value of 5000 and fragmented in the linear ion trap using low energy CID with normalized collision energy of 35%. […] All MS/MS data were analyzed using Andromeda implemented in MaxQuant.[33] […] The label free quantification option was selected with a maximal retention time window of 2 min for the alignment between LC-MS/MS runs.
# Human calmodulin (CALM1) = biological target: T2, Human calmodulin (CALM1) (Homo sapiens, UniProt P0DP23); test: MicroScale Thermophoresis (MST) binding to fluorescently labeled calmodulin; details: 10 nM labeled calmodulin, 25 °C
# T2 construct: purchased Enzo Life Sciences, Lausen, Switzerland
# Description: Human calmodulin (Enzo Life Sciences, Lausen, Switzerland) was labeled using the RED-NHS Labeling kit (NanoTemper Technologies). The labeling reaction was performed according to the manufacturer's instructions in the supplied labeling buffer applying a concentration of 20 μM protein (molar dye : protein ratio ≈ 2 : 1) at RT for 30 min. Unreacted dye was removed with the supplied dye removal columns equilibrated with MST buffer (50 mM TrisHCl pH 7.5, 150 mM NaCl, 10 mM MgCl2). The label : protein ratio was determined using photometry at 650 and 280 nm. Thereby, a ratio of 0.8 was typically achieved. The labeled calmodulin was adjusted to 20 nM with MST buffer. […]
# For thermophoresis, each ligand dilution was mixed with one volume of labeled calmodulin, which leads to a final concentration of fluorescently labeled calmodulin of 10 nM and final ligand concentrations ranging from 15.3 nM to 250 μM. […] Thermophoresis was measured using a Monolith NT.115 instrument (NanoTemper Technologies GmbH) at an ambient temperature of 25 °C with 5 s/30 s/5 s laser off/on/off times, respectively. […] Data of three independently pipetted measurements were analyzed (NT.Analysis software version 1.5.41, NanoTemper Technologies) using the signal from Thermophoresis + T-Jump. […]
# CALM1 (calmodulin) [2] = biological target: T1, CALM1 (calmodulin); test: Isothermal titration calorimetry (ITC) with calmodulin; details: 50 μM calmodulin in water, 25 °C, pH 6.5, read-out: KD (binding affinity to calmodulin by isothermal titration calorimetry)
# Description: ITC experiments were performed using a MicroCal ITC200 from GE Healthcare. 27c and 28c were dissolved in water to a concentration of 0.7 and 0.6 mM, respectively. Calmodulin was dissolved in water at 50 μM. Optionally CaCl2 (final concentration 500 μM) or EDTA (final concentration 1 mM) were added. The peptide solution was injected into the calmodulin solution (2.5 μL of peptide per injection at an interval of 180 s, a total of 15 injections into the cell volume of 200 μL, with stirring speed of 800 rpm, at 25 °C). […] The experimental data were fitted to a theoretical titration curve (“one set of sites” model) using software supplied by Microcal, with n (number of binding sites per monomer), ΔH (binding enthalpy, kcal mol^–1) and Ka (association constant, M^–1), as adjustable parameters. Thermodynamic parameters were calculated from the Gibbs free energy equation, ΔG = ΔH – TΔS = –RT ln Ka, where ΔG, ΔH, and ΔS are the changes in free energy, enthalpy, and entropy of binding, respectively. T is the absolute temperature, and R = 1.98 cal mol^–1 K^–1.
# [3] = Human serum stability assay; assay type: in vitro ADME; details: 24 h, 37 °C, 200 μM peptide
# Description: Human serum was diluted 1 : 4 in DMEM. Selected peptide was diluted in TRIS buffer to a concentration of 400 μM. Aliquots of peptide solution (50 μL) were added to aliquots of serum (50 μL) in sterile Eppendorf tubes, to reach a peptide concentration of 200 μM during the assay. Samples were incubated at 37 celsius degree under gentle stirring (350 rpm). Different samples (triplicate) were quenched at different time points (0/1/3/6/24 h) by precipitating serum proteins through the addition of ZnSO4·7H2O (0.1 M, 100 μL) and cooling down in ice bath. Protein precipitates were pelleted under centrifugation and the supernatants were sampled and evaporated to dryness in a centrifugal evaporator. Samples were resuspended in a H2O/ACN (4 : 1) mixture and centrifuged again to remove residual protein precipitate. Supernatants were then sampled and analysed by LC-MS. Experiment controls included a precipitation control for each peptide, to test their resistance to the protein precipitation conditions, and serum blanks, to check reproducibility over different serum batches. Two peaks originating from DMEM, surviving the incubation in serum and the protein precipitation conditions were used as internal standard.
# [4] = Water solubility (stated in words); assay type: physicochemical
compound,measurement,setting,value
R^2E^1Rfz^2FK^1GBGGK(biot) [28x],CALM1 (calmodulin) identified as target by CCMS,CALM1 (calmodulin) [1],did not indicate this target
"NCCCC[C@@H]1NC(=O)CSC[C@H]2NC(=O)[C@@H](Cc3c[nH]c4ccccc34)NC(=O)[C@H](CCCCN)NC(=O)[C@H](CCC(=O)NCCCC[C@@H](C(=O)NCC(N)=O)NC(=O)[C@H](Cc3c[nH]c4ccccc34)NC2=O)NC1=O [27c, K^2E^1Kwz^2WK^1G] ({CH2CO}-KEK[dW][dC]WKG-NH2; lactam 2-7; thioether N-5)",Kd,"Human calmodulin (CALM1); MST buffer pH 7.5, read-out: KD (binding affinity to calmodulin by microscale thermophoresis)",4.5 ± 1.1 µM
same,Kd,CALM1 (calmodulin) [2],0.8 ± 0.05 µM
same,Stability upon incubation in human serum,[3],entirely stable
"CC(C)C[C@@H]1NC(=O)CC[C@@H]2NC(=O)[C@@H]3CCCN3C(=O)[C@@H](Cc3ccc(O)cc3)NC(=O)[C@@H](CCCCNC(=O)[C@H](C)NC2=O)NC(=O)CNC1=O [compound 15, L^1Gk^2yPE^1A^2] (LG[dK][dY]PEA; lactam 3-C, N-6)",Stability upon incubation in human serum,[3],stable
K^2E^1Kwz^2WK^1GBGGK(biot) [27x],CALM1 (calmodulin) identified as target by CCMS,CALM1 (calmodulin) [1],specifically targeted
"N=C(N)NCCC[C@@H]1NC(=O)CSC[C@H]2NC(=O)[C@@H](Cc3ccccc3)NC(=O)[C@H](CCCNC(=N)N)NC(=O)[C@H](CCC(=O)NCCCC[C@@H](C(=O)NCC(N)=O)NC(=O)[C@H](Cc3ccccc3)NC2=O)NC1=O [28c, R^2E^1Rfz^2FK^1G] ({CH2CO}-RER[dF][dC]FKG-NH2; lactam 2-7; thioether N-5)",KD (binding affinity to calmodulin by microscale thermophoresis),Human calmodulin (CALM1); MST buffer pH 7.5,no measurable affinity
same,Kd,CALM1 (calmodulin) [2],6.8 ± 0.6 µM
R^2E^1Rfz^2FK^1GFGGK(biot) [28s],CALM1 (calmodulin) identified as target by CCMS,CALM1 (calmodulin) [1],did not indicate this target
K^2E^1Kwz^2WK^1GFGGK(biot) [27s],CALM1 (calmodulin) identified as target by CCMS,CALM1 (calmodulin) [1],specifically targeted
"CC(C)C[C@H]1NC(=O)CC[C@@H]2NC(=O)[C@@H]3CCCN3C(=O)[C@@H](Cc3ccccc3)NC(=O)[C@@H](CCCCNC(=O)[C@@H](C)NC2=O)NC(=O)CNC1=O [compound 1, l^1Gk^2fPE^1a^2] ([dL]G[dK][dF]PE[dA]; lactam 3-C, N-6)",Water solubility,[4],water insoluble

# Reference: PMC5949603, “Bridged bicyclic peptides as potential drug scaffolds: synthesis, structure, protein binding and stability” (Chemical Science, 2015)
